The test system of test [1] is RAW264.7. Description: Antiinflammatory activity in mouse RAW264.7 cells assessed as inhibition of LPS-induced nitric oxide production after 24 hrs by Griess method. Format: functional, cell-based. As to conditions: RAW264.7, 24 h. (In general: Griess reagent forms a coloured azo dye with nitrite.)
Test [2] concerns THP-1. The experiment in a line: Antiinflammatory activity in human THP1 cells assessed as inhibition of LPS-induced […] mRNA level at 12 to 25 uM preincubated for 1 hr followed by LPS stimulation measured after 12 hrs by qPCR method. In kind it is functional, cell-based.
Test [3] deals with T1, Transcription factor E3 (Homo sapiens) (UniProt P19532).
T1 sequence (whole entry): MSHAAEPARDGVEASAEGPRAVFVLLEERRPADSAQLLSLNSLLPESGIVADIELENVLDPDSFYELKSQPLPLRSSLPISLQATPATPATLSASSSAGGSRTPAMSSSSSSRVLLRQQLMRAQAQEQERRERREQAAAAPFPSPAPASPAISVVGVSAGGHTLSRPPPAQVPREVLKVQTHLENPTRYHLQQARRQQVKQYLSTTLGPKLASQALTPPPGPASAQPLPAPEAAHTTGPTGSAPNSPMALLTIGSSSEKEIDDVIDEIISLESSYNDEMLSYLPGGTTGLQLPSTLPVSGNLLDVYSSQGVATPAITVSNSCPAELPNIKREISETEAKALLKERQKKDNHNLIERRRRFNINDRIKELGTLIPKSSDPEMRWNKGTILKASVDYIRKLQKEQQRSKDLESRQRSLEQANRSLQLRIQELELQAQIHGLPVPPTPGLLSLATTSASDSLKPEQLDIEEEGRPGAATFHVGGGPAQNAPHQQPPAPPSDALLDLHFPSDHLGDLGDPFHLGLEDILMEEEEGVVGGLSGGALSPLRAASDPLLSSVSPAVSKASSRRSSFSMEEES
The experiment in a line: Inhibition of LPS-induced TFE3 nuclear translocation in human THP1 cells at 12 to 25 uM preincubated for 1 hr followed by LPS stimulation measured after 12 hrs by Western blot method. Format: cell-based. For orientation: Immunoblotting shows a protein as a band on a membrane.

The subject of test [4] is RAW264.7. The experiment in a line: Cytotoxicity against mouse RAW264.7 cells assessed as reduction in cell viability by MTT assay. Format: cell-based.
Test [5] has as its system THP-1. The experiment in a line: Antiinflammatory activity in human THP1 cells assessed as inhibition of LPS-induced IL-alpha mRNA level preincubated for 1 hr followed by LPS stimulation measured after 12 hrs by qPCR method. Format: functional, cell-based.
The test system of test [6] is THP-1. Description: Antiinflammatory activity in human THP1 cells assessed as inhibition of LPS-induced IL-beta mRNA level preincubated for 1 hr followed by LPS stimulation measured after 12 hrs by qPCR method. In kind it is functional, cell-based. A general note: In qPCR the cycle at which signal appears reflects the starting amount.
The subject of test [7] is THP-1. Description: Antiinflammatory activity in human THP1 cells assessed as inhibition of LPS-induced IL-6 mRNA level preincubated for 1 hr followed by LPS stimulation measured after 12 hrs by qPCR method. In kind it is functional, cell-based.
In test [8] the test system is THP-1. The experiment in a line: Antiinflammatory activity in human THP1 cells assessed as inhibition of LPS-induced TNF-alpha mRNA level preincubated for 1 hr followed by LPS stimulation measured after 12 hrs by qPCR method. In kind it is functional, cell-based.
Test [9] has as its system THP-1. Description: Antiinflammatory activity in human THP1 cells assessed as inhibition of LPS-induced […] mRNA level at 50 to 100 uM preincubated for 1 hr followed by LPS stimulation measured after 12 hrs by qPCR method. In kind it is functional, cell-based.
For test [10], the system named is THP-1. The experiment in a line: Antiinflammatory activity in human THP1 cells assessed as inhibition of LPS-induced COX-2 protein level at 50 to 100 uM preincubated for 1 hr followed by LPS stimulation measured after 12 hrs by Western blot method. Format: functional, cell-based.
Test [11] has as its target Transcription factor p65 (Homo sapiens) (UniProt Q04206). Description: Inhibition of LPS-induced NFkB p65 phosphorylation in cytoplasm of human THP1 cells preincubated for 1 hr followed by LPS stimulation measured after 12 hrs by Western blot method.
Test [12] shares this target. Description: Inhibition of LPS-induced NFkB p65 nuclear translocation in human THP1 cells preincubated for 1 hr followed by LPS stimulation measured after 12 hrs by Western blot method. Format: cell-based.
In test [13] the test system is THP-1. The experiment in a line: Inhibition of LPS-induced STAT1 nuclear translocation in human THP1 cells at 50 to 100 uM preincubated for 1 hr followed by LPS stimulation measured after 12 hrs by Western blot method. Format: functional, cell-based.
For test [14], the system named is THP-1. Description: Inhibition of LPS-induced STAT3 nuclear translocation in human THP1 cells at 50 to 100 uM preincubated for 1 hr followed by LPS stimulation measured after 12 hrs by Western blot method. In kind it is functional, cell-based.
Test [15] relates to THP-1. The experiment in a line: Inhibition of LPS-induced TFEB nuclear translocation in human THP1 cells at 50 to 100 uM preincubated for 1 hr followed by LPS stimulation measured after 12 hrs by Western blot method. In kind it is functional, cell-based.
Test [16] deals with T1, Transcription factor E3 (Homo sapiens). The experiment in a line: Inhibition of LPS-induced TFE3 nuclear translocation in human THP1 cells at 50 to 100 uM preincubated for 1 hr followed by LPS stimulation measured after 12 hrs by Western blot method. In kind it is cell-based.
For test [17] the target is unchanged. The experiment in a line: Inhibition of GFP-fused TFE3 (unknown origin) expressed in HEK293T cells assessed as reduction in LPS-induced TFE3 nuclear translocation at 100 uM preincubated for 1 hr followed by LPS stimulation measured after 12 hrs by DAPI staining based confocal microscopic method. Format: cell-based.
Test [18] addresses Transcription factor p65 (Homo sapiens) (UniProt Q04206). Description: Inhibition of GFP-fused NFkB p65 (unknown origin) expressed in HEK293T cells assessed as reduction in LPS-induced p65 nuclear translocation at 100 uM preincubated for 1 hr followed by LPS stimulation measured after 12 hrs by DAPI staining based confocal microscopic method. Format: cell-based.

Calls of active or inactive are those of the source. The rule behind the calls is not given here.

Chain of Transcription factor p65 (Homo sapiens) (Q04206 whole entry, the tested form may be a part): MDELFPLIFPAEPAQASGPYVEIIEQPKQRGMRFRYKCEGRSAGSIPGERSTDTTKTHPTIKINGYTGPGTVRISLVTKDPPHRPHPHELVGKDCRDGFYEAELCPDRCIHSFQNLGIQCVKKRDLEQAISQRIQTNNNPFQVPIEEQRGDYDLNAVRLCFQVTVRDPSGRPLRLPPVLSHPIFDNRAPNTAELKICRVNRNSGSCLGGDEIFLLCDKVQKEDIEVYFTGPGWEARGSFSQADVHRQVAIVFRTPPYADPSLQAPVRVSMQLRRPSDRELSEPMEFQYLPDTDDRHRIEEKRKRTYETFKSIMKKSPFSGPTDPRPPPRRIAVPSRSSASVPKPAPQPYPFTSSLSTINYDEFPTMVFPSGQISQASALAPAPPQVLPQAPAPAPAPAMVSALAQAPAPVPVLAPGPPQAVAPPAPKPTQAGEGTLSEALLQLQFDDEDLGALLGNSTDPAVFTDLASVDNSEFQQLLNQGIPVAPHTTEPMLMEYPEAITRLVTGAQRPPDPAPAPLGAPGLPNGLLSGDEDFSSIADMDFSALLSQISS

For the compound `O=c1cc(-c2ccc(O)c(O)c2)oc2cc(O)cc(O)c12` [LUTEOLIN], the IC50 with RAW264.7 [1] was 14.4 µM; in the test on RAW264.7 [4], over 50 µM. The inhibition result (in the test on THP-1 [2]; in [3]) was “Active” in each case.

For the compound `C/C1=C/C(=O)C/C(C)=C/C[C@]2(C)CC[C@](O)(C(C)C)[C@H]2CC1`, the IC50 with RAW264.7 [1] was 34.9 µM; in the test with RAW264.7 [4], over 100 µM. Further, the inhibition result (in the test on THP-1 [5]; in the test with THP-1 [6]; with THP-1 [7]; with THP-1 [8]; in test [11]; in [12]) was “Dose-dependent effect” throughout. Also, the inhibition entry (in the test with THP-1 [9]; with THP-1 [10]; in test [16]; in [17]; in test [18]) was “Active” in each case. Further, the inhibition entry in the test on THP-1 [13], in the test with THP-1 [14] and with THP-1 [15] was “inactive” throughout.

Consider `CC1=C(C)C(=O)C(CC[C@@](C)(O)CCC[C@@H](C)CCC[C@@H](C)CCCC(C)C)=C(C)C1=O`, for which the IC50 in the test with RAW264.7 [1] and in the test with RAW264.7 [4] was over 100 µM in each case.

As a reminder, the IC50 is the concentration needed to halve the response being measured.

The record behind these values is ChEMBL document CHEMBL4219226, “Terpenoids isolated from Chinese liverworts Lepidozia reptans and their anti-inflammatory activity” (Bioorg Med Chem, 2018).
